Experimental data published in patent US20240269139A1, “COMPOUNDS FOR TARGETED PROTEIN DEGRADATION OF KINASES” (DANA-FARBER CANCER INSTITUTE, INC., priority 2020, published 2024).
Read-outs that look alike come from different tables or passages of the source.

Experiments:
Type in all cases: cell-based
[1] = target: T1, protein kinases (human kinome) (Homo sapiens, UniProt Q9UQ88); conditions: experiment wp105
T1 sequence (Q9UQ88 1-783): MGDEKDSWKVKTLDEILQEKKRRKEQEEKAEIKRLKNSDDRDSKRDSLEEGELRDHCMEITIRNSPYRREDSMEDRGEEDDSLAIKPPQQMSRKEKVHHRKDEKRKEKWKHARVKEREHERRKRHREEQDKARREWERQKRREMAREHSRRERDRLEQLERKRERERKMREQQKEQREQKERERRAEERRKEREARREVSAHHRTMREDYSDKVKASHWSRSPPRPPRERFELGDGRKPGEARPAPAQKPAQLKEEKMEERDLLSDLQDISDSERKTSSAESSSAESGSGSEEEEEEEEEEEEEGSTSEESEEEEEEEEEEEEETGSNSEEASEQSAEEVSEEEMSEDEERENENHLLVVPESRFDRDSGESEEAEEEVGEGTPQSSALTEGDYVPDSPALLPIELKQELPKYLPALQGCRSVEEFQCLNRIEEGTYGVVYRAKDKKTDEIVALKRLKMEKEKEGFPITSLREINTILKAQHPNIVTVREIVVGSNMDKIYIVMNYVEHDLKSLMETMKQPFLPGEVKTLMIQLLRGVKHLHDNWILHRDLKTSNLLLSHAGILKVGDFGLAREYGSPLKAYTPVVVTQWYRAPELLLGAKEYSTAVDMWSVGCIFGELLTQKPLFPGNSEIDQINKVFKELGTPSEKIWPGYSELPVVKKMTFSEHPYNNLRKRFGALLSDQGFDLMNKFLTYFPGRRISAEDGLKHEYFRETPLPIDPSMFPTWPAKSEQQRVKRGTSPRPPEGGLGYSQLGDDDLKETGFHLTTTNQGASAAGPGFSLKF

[2] = target: protein kinases (human kinome) (Homo sapiens, UniProt P48736)
[3] = target: protein kinases (human kinome) (Homo sapiens, UniProt Q6JQN1); conditions: ACAD10 (Q6JQN1); experiment wp056
[4] = target: protein kinases (human kinome) (Homo sapiens, UniProt Q96RU7)
Sequence of protein kinases (human kinome) (Homo sapiens, UniProt Q96RU7) (Q96RU7 whole entry): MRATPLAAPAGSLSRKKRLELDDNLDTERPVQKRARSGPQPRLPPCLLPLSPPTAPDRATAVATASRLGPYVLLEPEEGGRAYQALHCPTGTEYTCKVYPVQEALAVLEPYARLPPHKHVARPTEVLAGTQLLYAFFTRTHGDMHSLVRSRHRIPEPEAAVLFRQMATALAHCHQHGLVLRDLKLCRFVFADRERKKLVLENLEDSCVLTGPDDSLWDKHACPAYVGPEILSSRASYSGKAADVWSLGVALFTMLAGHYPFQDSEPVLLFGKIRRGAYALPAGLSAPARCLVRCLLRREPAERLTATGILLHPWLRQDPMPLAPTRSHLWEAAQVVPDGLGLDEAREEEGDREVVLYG

[5] = target: protein kinases (human kinome) (Homo sapiens, UniProt Q96DU7); conditions: protein ITPKC (Q96DU7); experiment wp133, 4 hr; down
[6] = target: protein kinases (human kinome) (Homo sapiens, UniProt Q96QT4); conditions: experiment wp107
Sequence of protein kinases (human kinome) (Homo sapiens, UniProt Q96QT4) (Q96QT4 whole entry): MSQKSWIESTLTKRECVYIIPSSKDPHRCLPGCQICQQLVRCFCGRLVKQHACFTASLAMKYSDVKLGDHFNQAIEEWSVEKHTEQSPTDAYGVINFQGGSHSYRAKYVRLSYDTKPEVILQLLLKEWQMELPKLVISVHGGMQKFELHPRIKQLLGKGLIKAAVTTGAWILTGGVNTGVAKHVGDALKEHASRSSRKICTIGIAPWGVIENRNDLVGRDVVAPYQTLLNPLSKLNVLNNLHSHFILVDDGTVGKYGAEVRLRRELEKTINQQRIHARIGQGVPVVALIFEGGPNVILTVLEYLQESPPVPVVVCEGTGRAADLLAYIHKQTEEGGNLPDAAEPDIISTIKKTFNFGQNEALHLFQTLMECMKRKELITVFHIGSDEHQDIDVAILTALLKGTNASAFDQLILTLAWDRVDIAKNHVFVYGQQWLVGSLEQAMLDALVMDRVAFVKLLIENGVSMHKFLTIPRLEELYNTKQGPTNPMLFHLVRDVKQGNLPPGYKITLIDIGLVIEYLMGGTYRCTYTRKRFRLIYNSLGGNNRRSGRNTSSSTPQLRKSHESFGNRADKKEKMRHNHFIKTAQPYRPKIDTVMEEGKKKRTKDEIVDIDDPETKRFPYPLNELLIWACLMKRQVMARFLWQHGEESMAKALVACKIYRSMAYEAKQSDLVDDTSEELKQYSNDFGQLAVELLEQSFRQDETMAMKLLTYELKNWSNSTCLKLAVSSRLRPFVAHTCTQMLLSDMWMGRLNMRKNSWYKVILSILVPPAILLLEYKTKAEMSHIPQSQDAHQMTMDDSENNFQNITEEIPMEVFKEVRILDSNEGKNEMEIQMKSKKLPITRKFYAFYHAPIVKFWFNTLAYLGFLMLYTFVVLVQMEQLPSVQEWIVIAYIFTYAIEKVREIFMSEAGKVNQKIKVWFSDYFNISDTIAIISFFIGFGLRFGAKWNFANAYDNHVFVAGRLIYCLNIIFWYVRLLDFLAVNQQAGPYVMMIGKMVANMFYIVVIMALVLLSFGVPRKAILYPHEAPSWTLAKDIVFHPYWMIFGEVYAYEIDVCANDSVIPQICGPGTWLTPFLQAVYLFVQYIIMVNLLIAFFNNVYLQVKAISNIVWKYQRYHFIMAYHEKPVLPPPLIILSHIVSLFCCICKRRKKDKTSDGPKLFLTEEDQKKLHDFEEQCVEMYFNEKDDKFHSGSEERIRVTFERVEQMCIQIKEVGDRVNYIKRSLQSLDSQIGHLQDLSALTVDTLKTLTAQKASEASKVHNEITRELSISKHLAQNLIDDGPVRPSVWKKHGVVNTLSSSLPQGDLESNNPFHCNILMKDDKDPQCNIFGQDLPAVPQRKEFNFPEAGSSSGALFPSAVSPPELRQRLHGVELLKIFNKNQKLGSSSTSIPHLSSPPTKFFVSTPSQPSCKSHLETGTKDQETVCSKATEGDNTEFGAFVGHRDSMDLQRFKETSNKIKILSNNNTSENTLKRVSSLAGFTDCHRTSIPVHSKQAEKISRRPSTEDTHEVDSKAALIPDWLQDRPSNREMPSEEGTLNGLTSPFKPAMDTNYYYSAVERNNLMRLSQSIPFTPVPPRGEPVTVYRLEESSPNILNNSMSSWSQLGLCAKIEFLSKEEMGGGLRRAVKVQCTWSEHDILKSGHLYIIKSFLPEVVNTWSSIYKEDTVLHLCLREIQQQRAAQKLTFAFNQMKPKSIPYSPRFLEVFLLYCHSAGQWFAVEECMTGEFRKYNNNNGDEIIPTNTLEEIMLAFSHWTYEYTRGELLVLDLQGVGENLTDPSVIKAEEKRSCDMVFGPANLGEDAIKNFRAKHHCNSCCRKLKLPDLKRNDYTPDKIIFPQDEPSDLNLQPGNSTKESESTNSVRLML

[7] = target: protein kinases (human kinome) (Homo sapiens, UniProt O00418); conditions: experiment wp137
Sequence of protein kinases (human kinome) (Homo sapiens, UniProt O00418) (O00418 whole entry): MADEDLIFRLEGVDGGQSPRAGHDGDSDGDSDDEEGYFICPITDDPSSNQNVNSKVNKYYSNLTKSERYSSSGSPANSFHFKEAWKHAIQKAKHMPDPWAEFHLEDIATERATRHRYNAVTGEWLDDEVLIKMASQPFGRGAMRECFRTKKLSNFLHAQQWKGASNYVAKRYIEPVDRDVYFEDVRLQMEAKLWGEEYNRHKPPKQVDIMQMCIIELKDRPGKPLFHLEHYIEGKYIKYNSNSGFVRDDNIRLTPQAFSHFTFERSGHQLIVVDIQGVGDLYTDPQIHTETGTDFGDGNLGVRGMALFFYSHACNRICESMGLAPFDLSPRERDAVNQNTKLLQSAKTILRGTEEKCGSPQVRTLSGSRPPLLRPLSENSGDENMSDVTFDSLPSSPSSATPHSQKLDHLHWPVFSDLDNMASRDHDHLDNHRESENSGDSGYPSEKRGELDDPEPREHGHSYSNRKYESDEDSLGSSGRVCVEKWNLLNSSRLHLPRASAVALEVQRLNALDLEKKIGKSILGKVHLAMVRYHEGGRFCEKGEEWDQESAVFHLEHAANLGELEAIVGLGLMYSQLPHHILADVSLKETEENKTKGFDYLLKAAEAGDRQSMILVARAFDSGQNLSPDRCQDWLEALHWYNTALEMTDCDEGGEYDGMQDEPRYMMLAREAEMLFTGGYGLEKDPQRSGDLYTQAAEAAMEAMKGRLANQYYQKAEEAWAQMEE

[8] = target: protein kinases (human kinome) (Homo sapiens, UniProt P17948); conditions: experiment wp131
Sequence of protein kinases (human kinome) (Homo sapiens, UniProt P17948) (P17948 27-1338): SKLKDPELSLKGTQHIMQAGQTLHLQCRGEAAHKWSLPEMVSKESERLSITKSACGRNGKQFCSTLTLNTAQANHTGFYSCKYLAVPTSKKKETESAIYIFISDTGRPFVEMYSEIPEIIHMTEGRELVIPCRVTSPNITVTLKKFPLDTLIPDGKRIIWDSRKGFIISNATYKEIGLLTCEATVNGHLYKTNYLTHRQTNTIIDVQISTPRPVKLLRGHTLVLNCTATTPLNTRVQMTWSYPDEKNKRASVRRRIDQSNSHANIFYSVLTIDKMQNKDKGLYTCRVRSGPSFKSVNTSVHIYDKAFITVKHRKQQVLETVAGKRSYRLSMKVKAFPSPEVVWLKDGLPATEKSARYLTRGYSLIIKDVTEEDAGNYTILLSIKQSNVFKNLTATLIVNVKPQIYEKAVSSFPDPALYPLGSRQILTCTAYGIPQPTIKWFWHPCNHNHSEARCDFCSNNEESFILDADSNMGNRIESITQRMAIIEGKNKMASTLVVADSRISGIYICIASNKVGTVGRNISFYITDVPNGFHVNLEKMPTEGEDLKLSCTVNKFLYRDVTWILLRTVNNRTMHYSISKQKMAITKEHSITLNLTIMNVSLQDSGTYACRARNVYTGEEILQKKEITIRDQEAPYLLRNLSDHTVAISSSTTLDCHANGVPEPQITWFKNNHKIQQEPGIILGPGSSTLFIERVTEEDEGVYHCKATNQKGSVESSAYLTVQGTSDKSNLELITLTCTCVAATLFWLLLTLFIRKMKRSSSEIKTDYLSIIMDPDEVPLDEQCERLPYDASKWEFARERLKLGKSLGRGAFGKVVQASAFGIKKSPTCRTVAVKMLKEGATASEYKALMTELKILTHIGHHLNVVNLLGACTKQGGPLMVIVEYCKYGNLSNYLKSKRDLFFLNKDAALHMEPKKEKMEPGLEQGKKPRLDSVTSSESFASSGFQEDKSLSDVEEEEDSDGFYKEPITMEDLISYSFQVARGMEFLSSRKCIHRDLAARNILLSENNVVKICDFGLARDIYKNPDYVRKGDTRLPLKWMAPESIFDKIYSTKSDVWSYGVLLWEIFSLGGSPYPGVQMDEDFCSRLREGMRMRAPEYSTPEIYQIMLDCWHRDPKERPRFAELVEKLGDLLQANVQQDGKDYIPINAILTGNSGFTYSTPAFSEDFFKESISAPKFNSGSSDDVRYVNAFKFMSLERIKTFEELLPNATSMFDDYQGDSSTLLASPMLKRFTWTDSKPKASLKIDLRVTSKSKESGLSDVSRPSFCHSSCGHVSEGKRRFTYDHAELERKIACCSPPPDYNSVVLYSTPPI

[9] = target: protein kinases (human kinome) (Homo sapiens, UniProt P51956); conditions: experiment wp146
[10] = target: protein kinases (human kinome) (Homo sapiens, UniProt P49841)
[11] = target: T2, protein kinases (human kinome) (Homo sapiens, UniProt Q13043); conditions: for logFC: STK4 (Q13043-1)
T2 sequence (Q13043 1-487): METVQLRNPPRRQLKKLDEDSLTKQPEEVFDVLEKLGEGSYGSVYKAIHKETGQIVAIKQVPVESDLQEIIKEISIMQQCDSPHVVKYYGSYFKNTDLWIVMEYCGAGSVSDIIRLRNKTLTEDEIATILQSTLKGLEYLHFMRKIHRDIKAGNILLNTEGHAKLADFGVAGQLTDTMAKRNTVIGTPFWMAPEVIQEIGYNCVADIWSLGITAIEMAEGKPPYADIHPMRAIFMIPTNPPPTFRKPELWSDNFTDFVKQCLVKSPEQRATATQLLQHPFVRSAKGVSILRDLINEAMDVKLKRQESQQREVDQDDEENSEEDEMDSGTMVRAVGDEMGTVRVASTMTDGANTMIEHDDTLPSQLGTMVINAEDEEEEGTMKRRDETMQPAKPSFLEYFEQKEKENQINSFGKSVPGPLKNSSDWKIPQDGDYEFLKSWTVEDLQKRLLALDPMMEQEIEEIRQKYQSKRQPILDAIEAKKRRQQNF

[12] = target: protein kinases (human kinome) (Homo sapiens, UniProt P41743); conditions: experiment wp056
Sequence of protein kinases (human kinome) (Homo sapiens, UniProt P41743) (P41743 whole entry): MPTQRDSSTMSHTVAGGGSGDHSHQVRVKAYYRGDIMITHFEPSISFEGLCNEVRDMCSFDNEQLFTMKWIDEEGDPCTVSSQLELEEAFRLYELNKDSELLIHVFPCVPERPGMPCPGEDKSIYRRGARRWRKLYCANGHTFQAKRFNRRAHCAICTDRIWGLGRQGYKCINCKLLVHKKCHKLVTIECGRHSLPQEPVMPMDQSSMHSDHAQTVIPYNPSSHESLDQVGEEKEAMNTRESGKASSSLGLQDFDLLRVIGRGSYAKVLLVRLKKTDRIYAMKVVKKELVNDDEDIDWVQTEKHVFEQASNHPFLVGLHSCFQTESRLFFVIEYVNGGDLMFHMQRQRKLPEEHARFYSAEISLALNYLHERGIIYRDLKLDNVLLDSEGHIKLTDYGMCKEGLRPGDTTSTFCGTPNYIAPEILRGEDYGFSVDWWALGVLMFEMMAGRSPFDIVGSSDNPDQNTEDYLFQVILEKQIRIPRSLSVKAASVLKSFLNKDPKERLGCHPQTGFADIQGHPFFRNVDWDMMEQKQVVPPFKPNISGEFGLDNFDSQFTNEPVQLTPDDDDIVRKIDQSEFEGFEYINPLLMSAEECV

Cc1ccc(NC(=O)c2cccc(C(F)(F)F)c2)cc1N1Cc2cnc(Nc3ccc(N4CCN(Cc5cn(CCCCCOc6cccc7c6C(=O)N(C6CCC(=O)NC6=O)C7=O)nn5)CC4)nc3)nc2N(C)C1=O (stereo not shown) [DB0646, N-(3-(7-((6-(4-((1-(5-((2-(2,6-Dioxopiperidin-3-yl)-1,3-dioxoisoindolin-4-yl)oxy)pentyl)-1H-1,2,3-triazol-4-yl)methyl)piperazin-1-v)pyridin-3-yl)amino)-1-methyl-2-oxo-1,4-dihydropyrimido[4,5-d]pyrimidin-3(2H)-yl)-4-methylphenyl)-3-(trifluoromethyl)benzamide]
logFC ([1]; CDK11A (Q9UQ88-1)): −0.868 | logFC of CDK11A (Q9UQ88-1) [1]: −0.868

O=C1CCC(N2C(=O)c3cccc(NCCCCCCCCN4CCC(NC(=O)c5[nH]ncc5NC(=O)c5c(Cl)cccc5Cl)CC4)c3C2=O)C(=O)N1 (stereo not shown) [MFH.5.126.1]
logFC PIK3CG (P48736) ([2]; Experiment wp076, direction of change down): −0.3735 | logFC ([2]; PIK3CG (P48736), experiment wp076): −0.3735

Cc1ccc(C(=O)Nc2ccc(CN3CCN(CCCOCCOCCOCCNC(=O)COc4cccc5c4C(=O)N(C4CCC(=O)NC4=O)C5=O)CC3)c(C(F)(F)F)c2)cc1C#Cc1cnc2cccnn12 (stereo not shown) [SB1.G.187]
logFC [3]: −0.3838

CC(C)S(=O)(=O)c1ccccc1Nc1nc(Nc2ccc(N3CCN(CCOCCNC(=O)CNc4cccc5c4C(=O)N(C4CCC(=O)NC4=O)C5=O)CC3)cc2)ncc1Cl (stereo not shown) [SK.3.91]
logFC TRIB3 (Q96RU7) ([4]; Experiment wp114, direction of change down): −1.211 | logFC TRIB3 ([4]; protein TRIB3 (Q96RU7), experiment wp114, down): −1.211 | logFC ITPKC [5]: −0.3556 | logFC TRPM7 (Q96QT4) ([6]; direction of change down): −0.3241 | logFC TRPM7 ([6]; protein TRPM7 (Q96QT4), down): −0.3241

CC(C)S(=O)(=O)c1ccccc1Nc1nc(Nc2ccc(N3CCN(CCOCCOCCNC(=O)CNc4cccc5c4C(=O)N(C4CCC(=O)NC4=O)C5=O)CC3)cc2)ncc1Cl (stereo not shown) [TL12.186]
logFC EEF2K (O00418) ([7]; direction of change down): −0.3443 | logFC EEF2K ([7]; protein EEF2K (O00418), down): −0.3443 | logFC FLT1 (P17948-1) ([8]; direction of change down): −0.699 | logFC FLT1 ([8]; protein FLT1 (P17948-1), down): −0.699

Cc1cc(Nc2ncc(Br)c(Nc3cccc(F)c3C(N)=O)n2)ccc1S(=O)(=O)NCCOCCOCCOCCOCCNc1cccc2c1C(=O)N(C1CCC(=O)NC1=O)C2=O (stereo not shown) [TMX.02.174]
logFC NEK3 (P51956) ([9]; direction of change down): −0.8497 | logFC NEK3 ([9]; protein NEK3 (P51956), down): −0.8497

Nc1ncc(-c2ccc(S(=O)(=O)N(CCCNC(=O)CCOCCOCCOCCOCCOCCNc3cccc4c3C(=O)N(C3CCC(=O)NC3=O)C4=O)C3CC3)cc2)cc1-c1ccc2c(c1)CCNC2=O (stereo not shown) [WH.10417.099]
logFC GSK3B ([10]; Accession P49841-1, experiment wp172, direction down): −0.8298 | logFC of GSK3B (P49841-1) ([10]; Experiment wp172): −0.8298 | logFC of STK4 (Q13043-1) ([11]; Experiment wp103): −0.7387 | logFC of STK4 (Q13043-1) ([11]; Experiment wp107): −0.7188 | logFC of STK4 (Q13043-1) ([11]; Experiment wp172): −0.5983 | logFC ([11]; experiment wp056): −0.7157 | logFC ([11]; experiment wp103): −0.7387 | logFC ([11]; experiment wp107): −0.7188 | logFC ([11]; experiment wp172): −0.5983 | logFC of STK4 (Q13043-1) ([11]; experiment wp056): −0.7157

C=CCn1c(=O)c2cnc(Nc3ccc(N4CCN(CCCNc5cccc6c5C(=O)N(C5CCC(=O)NC5=O)C6=O)CC4)cc3)nc2n1-c1cccc(C(C)(C)O)n1 (stereo not shown) [ZNL.02.096]
logFC PRKCI (P41743) ([12]; direction of change down): −0.5365 | logFC PRKCI ([12]; protein PRKCI (P41743), down): −0.5365
